From US20200031778A1, “NOVEL 5-SUBSTITUTED IMIDAZOLYLMETHYL DERIVATIVES” (Bayer CropScience Aktiengesellschaft, priority 2016, published 2020)

Assay: Log P by HPLC on reversed phase columns (EEC directive 79/831 Annex V.A8; methods [a], [b], [c])
Assay type: physicochemical
Details: not given
Outline: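 Log P derived from retention times, interpolated linearly between bracketing straight-chain alkan-2-ones (3–16 carbons) of known Log P. Eluents ran acetonitrile 10% to 95% against water with 0.1% formic acid ([a], acidic), 0.001 M ammonium acetate ([b], neutral) or 0.1% phosphoric acid ([c], acidic); UV read-out.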

LogP | Compound
2.35^[a] | CC(O)(Cn1cncc1F)c1ccc(Oc2ccc(Br)cc2)nc1C(F)(F)F (stereo not shown) [I-213]
4.92^[a] | CCCOC(Cn1cncc1C#N)c1ccc(Oc2ccc(Cl)cc2)cc1C(F)(F)F (stereo not shown) [I-85]
3.35^[a] | CCCCCCC(O)(CC1CC1)Cn1cncc1C#N (stereo not shown) [I-427]
1.74^[a] | N#Cc1cncn1CC(O)(C#CC1CC1)C1(F)CC1 (stereo not shown) [I-693]
2.44^[a] | N#Cc1cncn1CC(O)(C=CCC(Cl)CCl)C1(F)CC1 (stereo not shown) [I-680]
2.18^[a] | N#Cc1cncn1CC(O)(c1ccc(F)cc1F)C1CC1 (stereo not shown) [I-410]
4.11^[a] | CC(O)(Cn1cncc1C(F)(F)F)c1ccc(Oc2ccc(I)cc2)cc1F (stereo not shown) [I-179]
3.29^[a] | CCC(C)C(O)(Cn1cncc1C#N)c1ccc(Cl)cc1Cl (stereo not shown) [I-314]
2.37^[a] | CC1(C(O)(Cn2cncc2C#N)c2ccc(F)cc2F)CC1 (stereo not shown) [I-440]
3.06^[a] | CC(C)(C)CC(O)(Cn1cncc1C#N)c1ccc(F)cc1F (stereo not shown) [I-238]
2.36^[a] | N#Cc1cncn1CC(O)(c1ccc(Cl)cc1F)C1(F)CC1 (stereo not shown) [I-356]
4.25^[a] | COC(Cn1cncc1C#N)c1ccc(Oc2ccc(Br)cc2)cc1C(F)(F)F (stereo not shown) [I-88]
2.07^[a] | N#Cc1cncn1CC(O)(c1c(F)ccc(F)c1F)C1(F)CC1 (stereo not shown) [I-590]
2.66^[a] | N#Cc1cncn1CC(O)(c1cc(F)c(Cl)cc1F)C1(Cl)CC1 (stereo not shown) [I-583]
3.15^[a] | CCOC(Cn1cncc1F)c1cnc(Oc2ccc(Cl)cc2)cc1C(F)(F)F (stereo not shown) [I-132]
3.37^[a] | N#Cc1cncn1CC(O)(CCC1CCCC1)C1(Cl)CC1 (stereo not shown) [I-596]
3.33^[a] | N#Cc1cncn1CC(O)(C#CCC1CCCCC1)CC1CC1 (stereo not shown) [I-593]
3.11^[a] | CC(C)C(O)(Cn1cncc1C#N)c1ccc(C(F)(F)F)cc1Cl (stereo not shown) [I-426]
2.74^[a] | N#Cc1cncn1CC(O)(c1ccc(C2CC2)cc1Cl)C1(F)CC1 (stereo not shown) [I-392]

LogP | Compound
4.16^[a] | CCOC(Cn1cncc1Br)c1ccc(Oc2ccc(Br)cc2)cc1Br (stereo not shown) [I-57]
2.47^[a] | N#Cc1cncn1CC(O)c1ccc(Oc2ccc(Br)nc2)cc1Cl (stereo not shown) [I-73]
2.37^[a] | N#Cc1cncn1CC(O)c1ccc(Oc2ccc(Cl)nc2)cc1Cl (stereo not shown) [I-43]
1.86^[a] | OC(Cn1cncc1Cl)c1ccc(Oc2ccc(Cl)nc2)cc1Cl (stereo not shown) [I-42]
2.71^[a] | OC(Cn1cncc1Cl)c1ccc(Oc2ccc(Br)cc2)cc1Br (stereo not shown) [I-45]
2.83^[a] | CC(C)(C)CC(O)(Cn1cncc1C#N)c1ccc(Br)cc1Cl (stereo not shown) [I-334]
2.46^[a] | N#Cc1cncn1CC(O)(c1ccc(F)cc1Br)C1CC1 (stereo not shown) [I-398]
1.76^[a] | N#Cc1cncn1CC(O)(CC1CC1)c1ccc(F)cc1F (stereo not shown) [I-414]
2.30^[a] | COc1ccc(Oc2ccc(C(C)(O)Cn3cncc3Cl)c(Cl)n2)c(Cl)c1 (stereo not shown) [I-163]
2.56^[a] | N#Cc1cncn1CC(O)(CC1CC1)c1ccc(F)c(Br)c1 (stereo not shown) [I-496]
2.75^[a] | OC(Cn1cncc1Cl)c1ccc(Oc2ccc(Br)cc2)cc1Cl (stereo not shown) [I-11]
1.81^[a] | N#Cc1cncn1CC(O)c1ccccc1C(F)(F)F (stereo not shown) [I-150]
2.39^[a] | N#Cc1cncn1CC(O)(c1c(Cl)ccc(Cl)c1F)C1(F)CC1 (stereo not shown) [I-564]
2.32^[a] | CC(O)(Cn1cncc1Cl)c1ccc(Oc2ccc(Br)cn2)cc1Cl (stereo not shown) [I-204]
1.78^[a] | CC(C)C(O)(Cn1cncc1C#N)C1(F)CC1 (stereo not shown) [I-380]
3.05^[a] | C[Si](C)(C)CC(O)(Cn1cncc1C#N)c1ccc(F)cc1 (stereo not shown) [I-227]
2.39^[a] | CCCC(O)(Cn1cncc1C#N)c1ccc(Cl)cc1 (stereo not shown) [I-289]
3.26^[a] | C#CCOC(Cn1cncc1F)c1ccc(Oc2ccc(Cl)cc2)cc1C(F)(F)F (stereo not shown) [I-106]

Compound | LogP
N#Cc1cncn1CC(O)(c1cnc(Cl)cc1Br)C1(F)CC1 (stereo not shown) [I-560] | 1.98^[a]

Same assay, conditions: reversed phase HPLC column; method [a]: LC-UV, acidic range, 0.1% formic acid in water and acetonitrile as eluent (linear gradient from 10% to 95% acetonitrile)

chromatographic logP | Compound
3.13 | CC(=O)c1cncn1CC(=O)c1ccc(Oc2ccc(Cl)cc2)nc1C(F)(F)F [IX-119]
3.19 | O=C(Cn1cncc1Br)c1ccc(Oc2ccc(I)cc2)cc1F [IX-48]
